Assay results: US6402037B1, “Two-photon upconverting dyes and applications” (The Research Foundation of State University of New York, priority 1995, dated 2002)
One block for each molecule: values may come before it.

Assays:
[1] = Energy transfer measurement (fluorescence of ASPS and TPPS in D2O)
Description: An experiment based on the fluorescence emission of porphyrin and ASPS was conducted to show energy transfer from the dye to the porphyrin. D2O solutions of the ASPS and TPPS were mixed in different concentrations in a quartz cuvette and placed in the sample compartment of a spectrofluorophotometer. […] The beam energy used in this experiment was approximately 50 mJ in a beam having a 4 mm diameter. […] The porphyrin without the ASPS was also irradiated with the IR laser light to determine any possible contributions from the porphyrin due to two-photon excitation. […] ASPS and TPPS solutions were mixed together and a series of spectra were collected to determine dependence of fluorescence emission spectrum on the concentration of the different molecular species.

[2] = Decomposition temperature (Td) by DSC thermogram; type: physicochemical; settings: DSC under nitrogen
Description: Decomposition temperature (“Td”) of each dye was measured by differential scanning calorimetry (“DSC”) thermogram using a Shimadzu DSC-50GPC under nitrogen. Elemental: analysis were performed by Atlantic Microlab, Inc., P.O. Box 2288, Norcross, Ga. 30019. Proton NMR spectra, TV/visible absorption spectra, and UV/visible emission spectra were recorded using a Varian Gemini-300 300 MHz spectrometer, a Shimazdu UV-3101 PC spectrophotometer, and a Shimazdu RF5000U spectrofluorophotometer, respectively: TV/visible absorption spectra of dyes prepared in these Examples in DMF, are provided in FIG. 3.

[3] = Two-photon pumped cavity lasing of APSS solution filled hollow fiber (800 nm pump)
From the text: As a comparison, the absorption spectrum of 1 mm-path length pure solvent (DMSO) is also provided. There is a strong absorption band around 400 nm due to APSS dye, and the solution is transparent in the 570˜1100 nm spectral range. However, the two-photon energy of ˜800 nm IR radiation falls into the strong absorption band. Therefore, an effective TPA process is expected by ˜800 nm excitation. […] The same effect is expected with increased path length of the solution sample with a given concentration.
The input 800 nm pump IR laser beam was provided by a pulsed dye laser pumped with a Q-switched and frequency-doubled Nd: YAG laser source. The beam size, pulse duration, angular divergence, and repetition rate of the input pump laser radiation were ˜3 mm, ˜5 ns, ˜1 mrad, and 1-10 Hz, respectively. The pump beam was focused by a 4×-microscope objective into the input end of a 15-cm long hollow quartz fiber filled with APSS, prepared as described in Example 16, in DMSO (do=0.012 M). […] Under the excitation of the input 800 nm pump beam, a strong TPA induced green fluorescence emission was seen from the hollow fiber. […]
The spectral intensity distribution of two-photon pumped cavity lasing from the above system is shown in FIG. 16 (dashed curve) at a pump energy level of Eo=290 μJ. For comparison, the one photon (at 400 nm) induced fluorescence spectrum of the same dye solution with the same concentration is also shown in FIG. 16 (solid curve). The bandwidth of cavity lasing was much narrower than the bandwidth of corresponding one-photon induced fluorescence emission without using any intracavity dispersion element. […] Therefore, the blue-side and central range of the fluorescence band would be expected to be more difficult to lase.
The measured single-pulse waveform was recorded by using a fast photodiode detector in conjunction with a 350 MHz oscilloscope (Tektronix 2467 with C1001 video camera). […] At a pump level of ˜150 μJ, the measured one-pass two-photon absorption in the 15 cm-long dye solution filled hollow fiber sample was only about ˜25%. […]

emission peak in mixture with ASPS ([1]; 1060 nm excitation): 653 nm
emission peak ([1]; excited at 610 nm): 650 nm
Molecule: O=S(=O)(O)c1ccc(-c2c3nc(c(-c4ccc(S(=O)(=O)O)cc4)c4ccc([nH]4)c(-c4ccc(S(=O)(=O)O)cc4)c4nc(c(-c5ccc(S(=O)(=O)O)cc5)c5ccc2[nH]5)C=C4)C=C3)cc1 [TPPS, meso tetra(p-sulfonaphenyl)porphyrin]

Decomposition temperature (Td) [2]: 241 °C
two-photon induced fluorescence emission peak ([1]; 1060 nm excitation): 610 nm
Molecule: trans-4-[p-(-ethyl-N-hydroxyethylamino)styryl]-N-butansulfonpyridinum [dye4]

central wavelength of one-photon fluorescence band ([3]; DMSO 0.012 M, 400 nm excitation): ~520 nm
strong linear absorption band ([3]; DMSO solution, 1 mm path): around 400 nm
transparent spectral range ([3]; DMSO solution, 1 mm path): 570˜1100 nm
Molecule: CN(CCO)c1ccc(C=Cc2ccc(S(=O)(=O)CCCCCCO)cc2)cc1 [APSS]
